Patent US20070254827A1, “Alpha-aminobenzyl-alpha,alpha,-diphosphoric acid selective chelation of beryllium” (priority 2006, published 2007)

Columns and labels:
[1] = Site-300 beryllium oxide debris particle chelation (ICP-MS of filtrates); format: physicochemical; details: pH 7, equilibrated 3 days
Protocol: The aims of this investigation were not limited to the study of beryllium in biological fluids and systems. A good chelator in the body is likely a good chelator in the environment. […] Particles were obtained from the Contained Firing Facility (CFF) at LLNL Site 300. Approximately 500 mg of beryllium oxide debris was weighed in a tared polyethylene vials and varying concentrations of APMDP chelator (pH adjusted to pH 7) were added to each vial. The vials were left to stand for 3 days, with manual shaking performed for 2 minutes each, twice a day. Samples were then filtered through a 0.2 um membrane and filtrates were analyzed by ICP-MS.

[2] = Initial mouse tolerability experiment with beryllium and chelator; format: in vivo, mice; details: beryllium and chelator administration, 48-hour experiment
Protocol: LLNL-IBC#2004-029. Two sets of animal experiments were performed.

[3] = in vivo; cited from earlier work
[4] = cited from earlier work

Row | SMILES | adverse effect on mice [2] | LD-50 [3] [mg/kg] | also measured
1 | NC(c1ccccc1)(P(=O)(O)O)P(=O)(O)O [APMDP, α-aminobenzyl-α,α,-diphosphoric acid] | did not adversely affect the mice | – | dissolution of insoluble BeO fines [1]: can be dissolved
2 | CC(N)c1ccccc1 (centres unmarked) [a-methylbenzylamine] | – | 940 | –
3 | CC(c1ccccc1)N(C)C (centres unmarked) [N,N-dimethyl-a-methylbenzylamine] | – | 420 | –
4 | O=P(O)(O)c1ccccc1 [phenylphosphonic acid] | – | – | water solubility [4]: water soluble; toxic at [3]: 110 mg/kg
5 | NCc1ccccc1 [Benzylamine] | – | 128 | –
6 | O=S(=O)(O)c1cc(O)c(O)c(S(=O)(=O)O)c1 [tiron] | did not adversely affect the mice | – | –
